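Compound exposure: 48 hours, 5 concentrations, 96-well plates. Definition used: TGI = concentration required for complete inhibition of growth.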
Experiments:
Assay in all cases: NCI-60 cell line screen, 48 h
786-0 renal = test system: 786-0 renal
A498 renal = test system: A498 renal
A549 NSCLC = test system: A549 NSCLC
ACHN renal = test system: ACHN renal
BT-549 breast = test system: BT-549 breast
CAKI-1 renal = test system: CAKI-1 renal
CCRF-CEM leukemia = test system: CCRF-CEM leukemia
COLO 205 colon = test system: COLO 205 colon
EKVX NSCLC = test system: EKVX NSCLC
HCC-2998 colon = test system: HCC-2998 colon
HCT-116 colon = test system: HCT-116 colon
HCT-15 colon = test system: HCT-15 colon
HOP-62 NSCLC = test system: HOP-62 NSCLC
HOP-92 NSCLC = test system: HOP-92 NSCLC
HS 578T breast = test system: HS 578T breast
HT29 colon = test system: HT29 colon
IGROV1 ovarian = test system: IGROV1 ovarian
K-562 leukemia = test system: K-562 leukemia
KM12 colon = test system: KM12 colon
LOX IMVI melanoma = test system: LOX IMVI melanoma
M14 melanoma = test system: M14 melanoma
MALME-3M melanoma = test system: MALME-3M melanoma
MDA-MB-231 breast = test system: MDA-MB-231 breast
MDA-MB-435 = test system: MDA-MB-435
MDA-N = test system: MDA-N
MOLT-4 leukemia = test system: MOLT-4 leukemia
NCI-H226 lung = test system: NCI-H226 lung
NCI-H23 lung = test system: NCI-H23 lung
NCI-H460 lung = test system: NCI-H460 lung
NCI-H522 lung = test system: NCI-H522 lung
NCI/ADR-RES ovarian = test system: NCI/ADR-RES ovarian
OVCAR-3 ovarian = test system: OVCAR-3 ovarian
OVCAR-4 ovarian = test system: OVCAR-4 ovarian
OVCAR-5 ovarian = test system: OVCAR-5 ovarian
OVCAR-8 ovarian = test system: OVCAR-8 ovarian
PC-3 prostate = test system: PC-3 prostate
RPMI-8226 leukemia = test system: RPMI-8226 leukemia
RXF 393 renal = test system: RXF 393 renal
SF-268 CNS = test system: SF-268 CNS
SF-295 CNS = test system: SF-295 CNS
SF-539 CNS = test system: SF-539 CNS
SK-MEL-2 melanoma = test system: SK-MEL-2 melanoma
SK-MEL-28 melanoma = test system: SK-MEL-28 melanoma
SK-MEL-5 melanoma = test system: SK-MEL-5 melanoma
SK-OV-3 ovarian = test system: SK-OV-3 ovarian
SN12C renal = test system: SN12C renal
SNB-19 CNS = test system: SNB-19 CNS
SNB-75 CNS = test system: SNB-75 CNS
SR leukemia = test system: SR leukemia
SW-620 colon = test system: SW-620 colon
T-47D breast = test system: T-47D breast
TK-10 renal = test system: TK-10 renal
U251 CNS = test system: U251 CNS
UACC-257 melanoma = test system: UACC-257 melanoma
UACC-62 melanoma = test system: UACC-62 melanoma
UO-31 renal = test system: UO-31 renal
DU-145 prostate = test system: DU-145 prostate
HL-60(TB) leukemia = test system: HL-60(TB) leukemia
MCF7 breast = test system: MCF7 breast

## CN1C(=O)c2ccccc2C(O)(c2ccccc2)C1(O)c1ccccc1 (stereo unspecified)
786-0 renal
  TGI: > 100 µM
A498 renal
  TGI: > 100 µM
A549 NSCLC
  TGI: > 100 µM
ACHN renal
  TGI: > 100 µM
BT-549 breast
  TGI: > 100 µM
CAKI-1 renal
  TGI: > 100 µM
CCRF-CEM leukemia
  TGI: > 100 µM
COLO 205 colon
  TGI: > 100 µM
EKVX NSCLC
  TGI: > 100 µM
HCC-2998 colon
  TGI: > 100 µM
HCT-116 colon
  TGI: > 100 µM
HCT-15 colon
  TGI: > 100 µM
HOP-62 NSCLC
  TGI: > 100 µM
HOP-92 NSCLC
  TGI: 97.7 µM
HS 578T breast
  TGI: > 100 µM
HT29 colon
  TGI: > 100 µM
IGROV1 ovarian
  TGI: > 100 µM
K-562 leukemia
  TGI: > 100 µM
KM12 colon
  TGI: > 100 µM
LOX IMVI melanoma
  TGI: > 100 µM
M14 melanoma
  TGI: > 100 µM
MALME-3M melanoma
  TGI: > 100 µM
MDA-MB-231 breast
  TGI: > 100 µM
MDA-MB-435
  TGI: > 100 µM
MDA-N
  TGI: > 100 µM
MOLT-4 leukemia
  TGI: > 100 µM
NCI-H226 lung
  TGI: > 100 µM
NCI-H23 lung
  TGI: > 100 µM
NCI-H460 lung
  TGI: > 100 µM
NCI-H522 lung
  TGI: > 100 µM
NCI/ADR-RES ovarian
  TGI: > 100 µM
OVCAR-3 ovarian
  TGI: > 100 µM
OVCAR-4 ovarian
  TGI: > 100 µM
OVCAR-5 ovarian
  TGI: > 100 µM
OVCAR-8 ovarian
  TGI: > 100 µM
PC-3 prostate
  TGI: > 100 µM
RPMI-8226 leukemia
  TGI: > 100 µM
RXF 393 renal
  TGI: > 100 µM
SF-268 CNS
  TGI: > 100 µM
SF-295 CNS
  TGI: > 100 µM
SF-539 CNS
  TGI: > 100 µM
SK-MEL-2 melanoma
  TGI: > 100 µM
SK-MEL-28 melanoma
  TGI: > 100 µM
SK-MEL-5 melanoma
  TGI: > 100 µM
SK-OV-3 ovarian
  TGI: > 100 µM
SN12C renal
  TGI: > 100 µM
SNB-19 CNS
  TGI: > 100 µM
SNB-75 CNS
  TGI: > 100 µM
SR leukemia
  TGI: > 100 µM
SW-620 colon
  TGI: > 100 µM
T-47D breast
  TGI: > 100 µM
TK-10 renal
  TGI: > 100 µM
U251 CNS
  TGI: > 100 µM
UACC-257 melanoma
  TGI: > 100 µM
UACC-62 melanoma
  TGI: > 100 µM
UO-31 renal
  TGI: > 100 µM

## O=C1/C(=C/c2cccnc2)SC(=S)N1Cc1ccco1
786-0 renal
  TGI: > 40.8 µM
A498 renal
  TGI: 70.6 µM
A549 NSCLC
  TGI: > 100 µM
ACHN renal
  TGI: > 48.9 µM
BT-549 breast
  TGI: > 100 µM
CAKI-1 renal
  TGI: 80.6 µM
CCRF-CEM leukemia
  TGI: 14.5 µM
COLO 205 colon
  TGI: > 42.2 µM
DU-145 prostate
  TGI: 9.22 µM
EKVX NSCLC
  TGI: > 100 µM
HCT-116 colon
  TGI: > 24.9 µM
HCT-15 colon
  TGI: > 100 µM
HL-60(TB) leukemia
  TGI: > 22 µM
HOP-62 NSCLC
  TGI: 27.1 µM
HOP-92 NSCLC
  TGI: > 43.1 µM
HS 578T breast
  TGI: > 22.1 µM
HT29 colon
  TGI: > 100 µM
IGROV1 ovarian
  TGI: > 42.3 µM
K-562 leukemia
  TGI: > 48 µM
KM12 colon
  TGI: 14.5 µM
LOX IMVI melanoma
  TGI: > 100 µM
M14 melanoma
  TGI: > 100 µM
MALME-3M melanoma
  TGI: > 43.5 µM
MCF7 breast
  TGI: > 100 µM
MDA-MB-231 breast
  TGI: > 51.1 µM
MDA-MB-435
  TGI: 5.54 µM
MDA-N
  TGI: 6.29 µM
MOLT-4 leukemia
  TGI: 14.3 µM
NCI-H226 lung
  TGI: 92 µM
NCI-H23 lung
  TGI: > 100 µM
NCI-H460 lung
  TGI: 25.1 µM
NCI-H522 lung
  TGI: 4.1 µM
NCI/ADR-RES ovarian
  TGI: > 100 µM
OVCAR-3 ovarian
  TGI: 10.4 µM
OVCAR-4 ovarian
  TGI: 77.6 µM
OVCAR-5 ovarian
  TGI: > 81.7 µM
OVCAR-8 ovarian
  TGI: > 48.5 µM
PC-3 prostate
  TGI: > 36.6 µM
RPMI-8226 leukemia
  TGI: > 23.7 µM
RXF 393 renal
  TGI: 24.2 µM
SF-268 CNS
  TGI: > 23.9 µM
SF-295 CNS
  TGI: > 100 µM
SF-539 CNS
  TGI: 6.12 µM
SK-MEL-2 melanoma
  TGI: > 27.2 µM
SK-MEL-28 melanoma
  TGI: > 100 µM
SK-MEL-5 melanoma
  TGI: > 51 µM
SK-OV-3 ovarian
  TGI: > 75.9 µM
SN12C renal
  TGI: 45 µM
SNB-19 CNS
  TGI: > 100 µM
SW-620 colon
  TGI: > 100 µM
T-47D breast
  TGI: 64.6 µM
TK-10 renal
  TGI: 10.8 µM
U251 CNS
  TGI: 30.6 µM
UACC-257 melanoma
  TGI: > 31.5 µM
UACC-62 melanoma
  TGI: > 82.3 µM
UO-31 renal
  TGI: 8.02 µM

## C/C=C/CC(C(=O)OCC)(N(C)C(=O)OC(C)(C)C)S(=O)(=O)c1ccc(C)cc1 (stereo unspecified)
786-0 renal
  TGI: > 100 µM
A498 renal
  TGI: > 100 µM
A549 NSCLC
  TGI: > 100 µM
ACHN renal
  TGI: > 100 µM
BT-549 breast
  TGI: > 100 µM
CAKI-1 renal
  TGI: > 100 µM
CCRF-CEM leukemia
  TGI: > 100 µM
COLO 205 colon
  TGI: > 100 µM
DU-145 prostate
  TGI: > 100 µM
EKVX NSCLC
  TGI: > 100 µM
HCT-116 colon
  TGI: > 100 µM
HCT-15 colon
  TGI: > 100 µM
HL-60(TB) leukemia
  TGI: > 100 µM
HOP-62 NSCLC
  TGI: > 100 µM
HOP-92 NSCLC
  TGI: > 100 µM
HS 578T breast
  TGI: > 100 µM
HT29 colon
  TGI: > 100 µM
IGROV1 ovarian
  TGI: > 100 µM
K-562 leukemia
  TGI: > 100 µM
KM12 colon
  TGI: > 100 µM
LOX IMVI melanoma
  TGI: > 100 µM
M14 melanoma
  TGI: > 100 µM
MALME-3M melanoma
  TGI: > 100 µM
MCF7 breast
  TGI: > 100 µM
MDA-MB-231 breast
  TGI: > 100 µM
MDA-MB-435
  TGI: 83 µM
MDA-N
  TGI: 48 µM
MOLT-4 leukemia
  TGI: > 100 µM
NCI-H226 lung
  TGI: > 100 µM
NCI-H23 lung
  TGI: > 100 µM
NCI-H522 lung
  TGI: > 100 µM
NCI/ADR-RES ovarian
  TGI: > 100 µM
OVCAR-3 ovarian
  TGI: > 100 µM
OVCAR-4 ovarian
  TGI: > 100 µM
OVCAR-5 ovarian
  TGI: > 100 µM
OVCAR-8 ovarian
  TGI: > 100 µM
PC-3 prostate
  TGI: > 100 µM
RPMI-8226 leukemia
  TGI: > 100 µM
RXF 393 renal
  TGI: > 100 µM
SF-268 CNS
  TGI: > 100 µM
SF-295 CNS
  TGI: > 100 µM
SF-539 CNS
  TGI: > 100 µM
SK-MEL-2 melanoma
  TGI: > 100 µM
SK-MEL-28 melanoma
  TGI: > 100 µM
SK-MEL-5 melanoma
  TGI: > 100 µM
SN12C renal
  TGI: > 100 µM
SNB-19 CNS
  TGI: > 100 µM
SW-620 colon
  TGI: > 100 µM
T-47D breast
  TGI: > 100 µM
TK-10 renal
  TGI: > 100 µM
U251 CNS
  TGI: > 100 µM
UACC-257 melanoma
  TGI: > 100 µM
UACC-62 melanoma
  TGI: > 100 µM
UO-31 renal
  TGI: > 100 µM
